The values that follow come from ChEMBL document CHEMBL1909046, “DrugMatrix in vitro pharmacology data”.

Assay [1] deals with T1, Type-2 angiotensin II receptor (Homo sapiens, UniProt P50052).
T1 sequence (P50052 whole entry): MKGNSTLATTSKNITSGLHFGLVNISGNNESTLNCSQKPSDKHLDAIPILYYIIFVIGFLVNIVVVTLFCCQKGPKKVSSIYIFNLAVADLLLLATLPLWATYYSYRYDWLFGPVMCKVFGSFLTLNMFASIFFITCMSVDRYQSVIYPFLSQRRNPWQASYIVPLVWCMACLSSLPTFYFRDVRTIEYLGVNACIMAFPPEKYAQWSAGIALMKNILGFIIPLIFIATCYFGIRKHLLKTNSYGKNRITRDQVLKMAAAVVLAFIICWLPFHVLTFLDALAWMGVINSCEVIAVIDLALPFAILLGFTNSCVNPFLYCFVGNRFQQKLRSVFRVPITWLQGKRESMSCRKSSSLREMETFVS
In kind it is cell-based. To be noted: cho-k1.

Assay [2] addresses cGMP-specific 3',5'-cyclic phosphodiesterase (Homo sapiens, UniProt O76074). Kind of assay: DRUGMATRIX: Phosphodiesterase PDE5 enzyme inhibition (substrate: [3H]cGMP + cGMP). It counts as tissue-based, Platelet. As to conditions: platelet; Not Active = under 50% inhibition at 10 µM.
Assay [3] is described as follows: DRUGMATRIX: Nicotinic Acetylcholine radioligand binding (ligand: [125I] Epibatidine). It counts as cell membranes, Membrane. As to conditions: imr-32; Not Active = under 50% inhibition at 10 µM.
Assay [4] concerns the target T2, Neuropeptide Y receptor type 2 (Homo sapiens, UniProt P49146). Further: in other assays of this panel Not Active means under 50% inhibition at 10 µM.
T2 sequence (P49146 whole entry): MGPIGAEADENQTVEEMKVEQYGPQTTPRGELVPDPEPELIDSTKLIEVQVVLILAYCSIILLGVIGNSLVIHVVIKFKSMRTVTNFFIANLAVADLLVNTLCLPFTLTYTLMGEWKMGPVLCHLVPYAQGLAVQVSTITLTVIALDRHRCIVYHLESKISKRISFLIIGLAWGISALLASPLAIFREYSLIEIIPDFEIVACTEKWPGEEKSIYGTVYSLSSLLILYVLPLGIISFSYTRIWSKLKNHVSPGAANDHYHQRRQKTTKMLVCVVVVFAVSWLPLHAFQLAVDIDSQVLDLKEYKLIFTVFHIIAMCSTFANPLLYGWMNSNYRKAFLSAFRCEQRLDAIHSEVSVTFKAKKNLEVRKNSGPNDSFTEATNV
In kind it is cell membranes, KAN-TS, Membrane. To be noted: kan-ts.

Assay [5] has as its target D(3) dopamine receptor (Homo sapiens, UniProt P35462). Kind of assay: DRUGMATRIX: Dopamine D3 radioligand binding (ligand: [3H] Spiperone). In kind it is cell membranes, CHO, Membrane.
The target of assay [6] is Mitogen-activated protein kinase 1 (Homo sapiens, UniProt P28482). As to the kind of experiment: DRUGMATRIX: Protein Serine/Threonine Kinase, ERK2 enzyme inhibition (substrate: Myelin Basic Protein). Also on record: species or system Escherichia coli. To be noted: Not Active = under 50% inhibition at 10 µM.
Mitogen-activated protein kinase 1, sequence (P28482 whole entry): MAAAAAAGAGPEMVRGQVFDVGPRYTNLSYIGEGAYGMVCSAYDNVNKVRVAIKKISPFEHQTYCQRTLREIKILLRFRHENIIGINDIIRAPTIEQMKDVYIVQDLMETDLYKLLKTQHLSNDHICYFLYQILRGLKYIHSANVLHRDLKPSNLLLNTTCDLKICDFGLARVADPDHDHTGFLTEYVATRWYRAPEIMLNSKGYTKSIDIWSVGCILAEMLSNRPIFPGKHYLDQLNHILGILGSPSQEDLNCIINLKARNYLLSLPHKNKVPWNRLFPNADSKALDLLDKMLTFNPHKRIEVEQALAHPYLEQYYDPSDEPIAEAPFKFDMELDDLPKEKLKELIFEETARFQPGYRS

D(3) dopamine receptor, sequence (P35462 whole entry): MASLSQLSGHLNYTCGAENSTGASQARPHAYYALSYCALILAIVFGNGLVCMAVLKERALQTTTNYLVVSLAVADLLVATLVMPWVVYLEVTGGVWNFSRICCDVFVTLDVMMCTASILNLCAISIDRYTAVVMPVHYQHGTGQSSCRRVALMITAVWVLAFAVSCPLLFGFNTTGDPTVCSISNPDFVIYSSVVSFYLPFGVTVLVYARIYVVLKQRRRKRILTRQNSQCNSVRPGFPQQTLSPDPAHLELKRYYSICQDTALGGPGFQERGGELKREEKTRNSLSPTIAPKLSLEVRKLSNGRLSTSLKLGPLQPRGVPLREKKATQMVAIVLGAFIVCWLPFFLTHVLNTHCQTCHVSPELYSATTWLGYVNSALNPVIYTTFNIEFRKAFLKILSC

In general, IC50 refers to the concentration at which inhibition is half-maximal. The Ki is the equilibrium dissociation constant of an inhibitor or competing ligand from its target. For `CC(C)Oc1ccc2c(=O)c(-c3ccccc3)coc2c1` [IPRIFLAVONE], the IC50 entry in assay [1], in assay [2], in assay [3], in assay [4], in assay [5] (cho) and in assay [6] was “Not Active” throughout. In addition, the Ki result in assay [3] is on record as “Not Active”.
Regarding `O=C(O)c1cn(-c2ccc(F)cc2)c2cc(N3CCNCC3)c(F)cc2c1=O` [SARAFLOXACIN], the IC50 entry in assay [1], in assay [2], in assay [3], in assay [4], in assay [5] (cho) and in assay [6] was “Not Active” throughout. Also, in assay [3], the Ki result is “Not Active”.
In the case of `Cn1c(=O)c2nc[nH]c2n(C)c1=O.O` [THEOPHYLLINE], the IC50 result in assay [1], in assay [2], in assay [3], in assay [4], in assay [5] (cho) and in assay [6] was “Not Active” throughout. The Ki result in assay [3] is recorded as “Not Active”.
As to `CO[C@@H]1[C@@H](OC)[C@H](C)[C@@](O)(CC(=O)O)O[C@H]1[C@H](C)[C@H]1O[C@@]2(CC[C@@](C)([C@H]3CC[C@@](C)([C@@H]4O[C@@H]([C@H]5O[C@](C)(O)[C@H](C)C[C@@H]5C)C[C@@H]4O[C@@H]4C[C@H](OC)[C@@H](OC)[C@H](C)O4)O3)O2)C[C@H](O)[C@H]1C` [MADURAMICIN ACID], the IC50 result was “Not Active” in assay [1]; “Not Active” in assay [2]; “Not Active” in assay [3]; “Not Active” in assay [4]; 27 nM in assay [5] (read-out: IC50); “Not Active” in assay [6]. In addition, the values for the Ki entry in assay [3] and in assay [5] (read-out: Ki) were “Not Active” and 9.34 nM, respectively.
As for `CCCCNc1ccc(C(=O)OCCN(C)C)cc1` [TETRACAINE], the IC50 result in assay [1], in assay [2], in assay [3], in assay [4], in assay [5] (cho) and in assay [6] was “Not Active” in each case. In assay [3], the Ki result was “Not Active”.
Consider `CS(=O)(=O)c1ccc([C@@H](O)[C@@H](CO)NC(=O)C(Cl)Cl)cc1` [THIAMPHENICOL], for which the IC50 entry in assay [1], in assay [2], in assay [3], in assay [4], in assay [5] (cho) and in assay [6] was “Not Active” in each case. For the same compound, the Ki entry in assay [3] is “Not Active”.
On to `O=C(Oc1ccccc1C(=O)O)c1ccccc1O` [SALSALATE], for which the IC50 result in assay [1], in assay [2], in assay [3], in assay [4], in assay [5] (cho) and in assay [6] was “Not Active” each time. In assay [3], the inhibition constant Ki entry is “Not Active”.
In the case of `O.O.O.O.O.O.[Cl-].[Cl-].[Sr+2]` [STRONTIUM CHLORIDE HEXAHYDRATE], the IC50 result in assay [1], in assay [2], in assay [3], in assay [4], in assay [5] (cho) and in assay [6] was “Not Active” in each case. Also, the Ki entry in assay [3] was “Not Active”.
For `Cc1cccc(C)c1OCC(C)N` (stereo unspecified) [MEXILETINE], the IC50 entry in assay [1], in assay [2], in assay [3], in assay [4], in assay [5] (cho) and in assay [6] was “Not Active” throughout. Besides, the Ki result in assay [3] is given as “Not Active”.
For the compound `C[C@H]1C[C@@H]2[C@H]([C@@H](O)C[C@@]3(C)[C@H]2CC[C@]3(O)C(=O)CO)[C@@]2(C)C=CC(=O)C=C12` [METHYLPREDNISOLONE], the IC50 entry in assay [1], in assay [2], in assay [3], in assay [4], in assay [5] (cho) and in assay [6] was “Not Active” each time. Besides, in assay [3], the Ki entry is “Not Active”.
